Columns and labels:
[1] = system: Phospho-ERK1/2(THR202/TYR204) in NCI-H358 cells express KRAS G12C; assay: Phospho-ERK1/2(THR202/TYR204) HTRF assay; format: cell-based; conditions: Homo sapiens; NCI-H358, 2 hours incubation; read-out: p-ERK inhibition in NCI-H358 IC50
Procedure, shortened: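 Compounds applied to attached cells for 2 h at 37 °C in RPMI 1640 with 0.1% FBS. Lysate phospho-ERK1/2 detected by HTRF after 4 h antibody incubation at 25 °C; IC50 from 4-parameter logistic fit.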

KRAS G12C = target: T1, KRAS G12C (Homo sapiens, UniProt P01116, G12C); assay: SOS1 catalyzed nucleotide exchange assay (TR-FRET); format: biochemical; conditions: GDP-loaded HIS-KRAS(G12C), 1 hour pre-incubation with compound
T1 construct: HIS-KRAS (G12C, aa 2-185, Sino biological); purchased Sino biological
T1 sequence (P01116 2-185 isoform P01116-2 G12C): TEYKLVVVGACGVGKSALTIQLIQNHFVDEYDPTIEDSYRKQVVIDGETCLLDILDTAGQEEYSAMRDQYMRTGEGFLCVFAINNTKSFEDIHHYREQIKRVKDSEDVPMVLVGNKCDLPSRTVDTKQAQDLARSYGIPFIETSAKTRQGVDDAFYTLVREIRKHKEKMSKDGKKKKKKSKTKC
Procedure, shortened: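 EDTA-stripped, GDP-loaded His-KRAS G12C (aa 2-185; 3 nM final) preincubated 1 h with compound, then SOS1 ExD (aa 564-1049; 2 μM) and BODIPY-FL GTP (80 nM) added for 4 h at 25 °C. TR-FRET via anti-His Tb cryptate (515/486 nm ratio); IC50 from 4-parameter logistic fit.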

[2] = system: NCI-H358 cells express KRAS G12C; assay: Cell growth inhibition assay (CCK-8); format: cell-based; conditions: Homo sapiens, 144 h; NCI-H358, 6 days incubation
Procedure, shortened: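 Antiproliferative read-out: KRAS G12C-mutant NCI-H358 lung cancer cells (3000/well) exposed to compounds in RPMI 1640 with 10% FBS for 6 days at 37°C. Viability by CCK-8 (OD450) after 1.5-2 h; IC50 from 4-parameter logistic fit.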

Row | SMILES | IC50 [1] [nM] | IC50 (KRAS G12C) [nM] | IC50 [2] [nM]
1 | C=CC(=O)N1CCN(c2nc(OCC3(CN(C)C)CC3)nc3c2CCN(c2cccc(C)c2C)C3)CC1CC#N (stereo not drawn) [Compound 48, 2-(1-acryloyl-4-(2-((1-((dimethylamino)methyl)cyclopropyl)methoxy)-7-(2,3-dimethylphenyl)-5,6,7,8-tetrahydropyrido[3,4-d]pyrimidin-4-yl)piperazin-2-yl)acetonitrile] | 66 | 3.31 | 94.9
2 | C=CC(=O)N1CCN(c2nc(OCC3(CN4CC[C@@H](F)C4)CC3)nc3c2CCN(c2cccc4cccc(C)c24)C3)CC1CC#N (stereo partly drawn) [Compound 49, 2-(1-acryloyl-4-(2-((1-(((R)-3-fluoropyrrolidin-1-yl)methyl)cyclopropyl)methoxy)-7-(8-methylnaphthalen-1-yl)-5,6,7,8-tetrahydropyrido[3,4-d]pyrimidin-4-yl)piperazin-2-yl)acetonitrile] | 38.4 | 3.12 | 64.2
3 | C=CC(=O)N1CCN(c2nc(OCC3(CN(C)C)CC3)nc3c2CCN(c2cccc4ccsc24)C3)CC1CC#N (stereo not drawn) [Compound 50, 2-(1-acryloyl-4-(7-(benzo[b]thiophen-7-yl)-2-((1-((dimethylamino)methyl)cyclopropyl)methoxy)-5,6,7,8-tetrahydropyrido[3,4-d]pyrimidin-4-yl)piperazin-2-yl)acetonitrile] | 83.8 | 8.66 | 202
4 | C=CC(=O)N1CCN(c2nc(OCC3(CN(C)C)CC3)nc3c2CCN(c2cccc4sccc24)C3)CC1CC#N (stereo not drawn) [Compound 51, 2-(1-acryloyl-4-(7-(benzo[b]thiophen-4-yl)-2-((1-((dimethylamino)methyl)cyclopropyl)methoxy)-5,6,7,8-tetrahydropyrido[3,4-d]pyrimidin-4-yl)piperazin-2-yl)acetonitrile] | 77.1 | 3.28 | 99.9
5 | C=CC(=O)N1CCN(c2nc(OCC3(CN(C)C)CC3)nc3c2CCN(c2cccc4ncsc24)C3)CC1CC#N (stereo not drawn) [Compound 54, 2-(1-acryloyl-4-(7-(benzo[d]thiazol-7-yl)-2-((1-((dimethylamino)methyl)cyclopropyl)methoxy)-5,6,7,8-tetrahydropyrido[3,4-d]pyrimidin-4-yl)piperazin-2-yl)acetonitrile] | > 500 | 82.8 | > 1000
6 | C=CC(=O)N1CCN(c2nc(OC(C)C3(CN(C)C)CC3)nc3c2CCN(c2cccc4cccc(C)c24)C3)CC1CC#N (stereo not drawn) [Compound 57, 2-(1-acryloyl-4-(2-(1-(1-((dimethylamino)methyl)cyclopropyl)ethoxy)-7-(8-methylnaphthalen-1-yl)-5,6,7,8-tetrahydropyrido[3,4-d]pyrimidin-4-yl)piperazin-2-yl)acetonitrile] | 296 | 28.1 | 522
7 | C=CC(=O)N1CCN(c2nc(OCC3(CN4CCN(C)CC4)CC3)nc3c2CCN(c2cccc4cccc(C)c24)C3)CC1CC#N (stereo not drawn) [Compound 58, 2-(1-acryloyl-4-(7-(8-methylnaphthalen-1-yl)-2-((1-((4-methylpiperazin-1-yl)methyl)cyclopropyl)methoxy)-5,6,7,8-tetrahydropyrido[3,4-d]pyrimidin-4-yl)piperazin-2-yl)acetonitrile] | 44.3 | 1.47 | 36.9
8 | C=CC(=O)N1CCN(c2nc(OCC3(CN4CC(N(C)C)C4)CC3)nc3c2CCN(c2cccc4cccc(C)c24)C3)CC1CC#N (stereo not drawn) [Compound 59, 2-(1-acryloyl-4-(2-((1-((3-(dimethylamino)azetidin-1-yl)methyl)cyclopropyl)methoxy)-7-(8-methylnaphthalen-1-yl)-5,6,7,8-tetrahydropyrido[3,4-d]pyrimidin-4-yl)piperazin-2-yl)acetonitrile] | 57.2 | 1.1 | 61.9
9 | C=CC(=O)N1CCN(c2nc(OCC3(CN4CCCC4)CC3)nc3c2CCN(c2cccc4cccc(Cl)c24)C3)CC1CC#N (stereo not drawn) [Compound 61, 2-(1-acryloyl-4-(7-(8-chloronaphthalen-1-yl)-2-((1-(pyrrolidin-1-ylmethyl)cyclopropyl)methoxy)-5,6,7,8-tetrahydropyrido[3,4-d]pyrimidin-4-yl)piperazin-2-yl)acetonitrile] | 16.2 | 1.44 | 25.1
10 | C=CC(=O)N1CCN(c2nc(OCC3(CN4CC(F)C4)CC3)nc3c2CCN(c2cccc4cccc(C)c24)C3)CC1CC#N (stereo not drawn) [Compound 62, 2-(1-acryloyl-4-(2-((1-((3-fluoroazetidin-1-yl)methyl)cyclopropyl)methoxy)-7-(8-methylnaphthalen-1-yl)-5,6,7,8-tetrahydropyrido[3,4-d]pyrimidin-4-yl)piperazin-2-yl)acetonitrile] | 43 | 2.34 | 66.9
11 | C=CC(=O)N1CCN(c2nc(OCC3(C(=O)N4CCN(C)CC4)CC3)nc3c2CCN(c2cccc4cccc(C)c24)C3)CC1CC#N (stereo not drawn) [Compound 63, 2-(1-acryloyl-4-(7-(8-methylnaphthalen-1-yl)-2-((1-(4-methylpiperazine-1-carbonyl)cyclopropyl)methoxy)-5,6,7,8-tetrahydropyrido[3,4-d]pyrimidin-4-yl)piperazin-2-yl)acetonitrile] | 533 | 30.9 | 861
12 | C=CC(=O)N1CCN(c2nc(OCC3(CN(C)CCN(C)C)CC3)nc3c2CCN(c2cccc4cccc(C)c24)C3)CC1CC#N (stereo not drawn) [Compound 64, 2-(1-acryloyl-4-(2-((1-(((2-(dimethylamino)ethyl)(methyl)amino)methyl)cyclopropyl)methoxy)-7-(8-methylnaphthalen-1-yl)-5,6,7,8-tetrahydropyrido[3,4-d]pyrimidin-4-yl)piperazin-2-yl)acetonitrile] | 124 | 1.69 | 74.5
13 | C=CC(=O)N1CCN(c2nc(OCC3(CN4CC[C@H](N(C)C)C4)CC3)nc3c2CCN(c2cccc4cccc(C)c24)C3)CC1CC#N (stereo partly drawn) [Compound 65, 2-(1-acryloyl-4-(2-((1-(((S)-3-(dimethylamino)pyrrolidin-1-yl)methyl)cyclopropyl)methoxy)-7-(8-methylnaphthalen-1-yl)-5,6,7,8-tetrahydropyrido[3,4-d]pyrimidin-4-yl)piperazin-2-yl)acetonitrile] | 87.8 | 1.46 | 32.8
14 | C=CC(=O)N1CCN(c2nc(OCC3(CN4CCN(C(C)=O)CC4)CC3)nc3c2CCN(c2cccc4cccc(C)c24)C3)CC1CC#N (stereo not drawn) [Compound 66, 2-(4-(2-((1-((4-acetylpiperazin-1-yl)methyl)cyclopropyl)methoxy)-7-(8-methylnaphthalen-1-yl)-5,6,7,8-tetrahydropyrido[3,4-d]pyrimidin-4-yl)-1-acryloylpiperazin-2-yl)acetonitrile] | 13.6 | 1.46 | 25.1
15 | Cc1cccc2cccc(N3CCc4c(nc(OCC5(CN(C)C)CC5)nc4N4CCN(C(=O)/C=C/CO)C(CC#N)C4)C3)c12 (stereo not drawn) [Compound 69, (E)-2-(4-(2-((1-((dimethylamino)methyl)cyclopropyl)methoxy)-7-(8-methylnaphthalen-1-yl)-5,6,7,8-tetrahydropyrido[3,4-d]pyrimidin-4-yl)-1-(4-hydroxybut-2-enoyl)piperazin-2-yl)acetonitrile] | 157 | 2.73 | 77.6

Reference: patent publication US20210040089A1, “KRAS MUTANT PROTEIN INHIBITORS” (Jacobio Pharmaceuticals Co., Ltd., priority 2019, published 2021)
